According to patent US9868722B2, “Monocyclic pyrimidine/pyridine compounds as inhibitors of P97 complex” (Cleave Biosciences, Inc., priority 2013, dated 2018):
Counter-ions that a name gives are not always drawn. Like-named read-outs stand apart in the source and are kept apart here.

Legend:
p97 = p97 (Homo sapiens, UniProt P55072); experiment: P97 ATPase biochemical assay (ADP Glo)
Protocol: The ATPase assay is performed according the following protocol: Purified enzyme (20 nM p97), substrate (20 μM ATP) and a dose titration of compounds are mixed in buffer (50 mM TRIS pH 7.5, 20 mM MgCl2, 0.02% TX-100, 1 mM DTT, 0.2% (v/v) glycerol) and incubated at 37° C. for 15 minutes. The reaction is terminated and the level of product generated is measured using the ADP Glo Assay Kit (Promega, Madison Wis.). Plotting product generated versus compound concentration and using a four-parameter fit model generates an IC50 value for each compounds.
The p97 assay is an initial screening assay used to determine inhibitory activity of the monocyclic pyrimidine compounds of the invention against the p97 complex. As discussed above, inhibition of activity of the p97 proteosome complex can enable apoptosis and cause elimination of neoplastic cells (cancer cells). The method follows that of Christianson in Nat. Cell Biol., (2011) 14:93.
Assay Buffer is a mixture of 50 mM TRIS pH 7.5, 20 mM MgCl2, 0.02% TX-100, 1 mM DTT and 0.2% (v/v) Glycerol. The well plate is Platetype: Corning 3674, 384w plate. The identification kit is an ADP glo kit (Promega): stop buffer, detection reagent.
Serial dilute compound in DMSO in a 1:3.33-fold 10 point serial dilution.
0.5 μL compound serial diluted in DMSO (Final Conc. 10%)
2 μL ATP (Final Conc.=20 uM, diluted in assay buffer)
2.5 μL p97 (Final Conc.=20 nM, diluted in assay buffer)
Incubate at 37 degC for 15 min.
Add 5 μL of stop buffer, incubate at RT for 40 min.
Add 10 μL of detection reagent, incubate at RT for 30 min.
Read luminescence on Envision plate reader. • Upon obtaining the data from the luminescence reading, the data may be analyzed as follows:
Normalize luminescence data using no enzyme (full inhibition) and no compound (no inhibition) controls. Plot normalized luminescence data against log-transformed concentration values and fit to a sigmoidal curve to determine IC50 values (done in Collaborative Drug Discovery software).
The results are reported on the following Table for Examples A-EE and the E1-E4 compounds as 50 percent Inhibitory concentration at candidate doses of less than 30 nM, less than 100 nM, less than 300 nM and less than 1000 nM for the p97 inhibition assay.

[1] = system: K48 poly-Ubiquitin accumulation in A549 cells; experiment: A549 K48 poly-ubiquitin accumulation immunofluorescence assay; assay type: cell-based; details: Homo sapiens
Protocol: Image-analysis is used to generate quantitative data from these assays that can be fit to a four-parameter sigmoid curve to derive IC50 values. Substrates of the ubiquitin-proteasome system, such as p53, are monitored after tumor cell lines are incubated with compounds for several hours. Accumulation of these proteins indicates an inhibition of proteasome-mediated degradation. Accumulation of lysine-48 chain linkage of poly-ubiquitin is also monitored by immunofluorescence as an indicator of ubiquitin-proteasome system inhibition. Both LC3 and SQSTM1 are mediators of autophagy. The localization and amounts of these proteins are monitored by immunofluorescence and report on the activity and inhibition of autophagy in response to p97 inhibition.
(§1) Plate 25 μL of A549 cells in every well of 384-well plate using multidrop.
Two (2) black plates for IF at 2500 cells/well
Serial dilute compounds with a 10 point 2-fold serial dilution in DMSO to make 250× stock compound solution Dilute compounds 1:125 in cell culture media to make a 2× solution Add 25 μl of dilution compounds to cell plates in well duplicates Put cells back in incubator (6 hr incubation for black plates, 72 hr incubation for white plates).
Incubate cells in black plates with compound at 37 degC for 6 hrs. add 15 μL of 16% Paraformaldehyde (PFA) directly into media of each well, incubate at room temp for 5 min, flick plate and wash in 50 μL of PBS block in 50 μL of Blocking Buffer for 30 minutes (can go up to several hours) Blocking buffer: 1×PBS, 1% BSA, 0.3% Triton-X100, Hoechst (1:10,000) incubate in 25 μL of primary antibody in blocking buffer at 4 degC over night […]
Secondary Antibodies: • AlexaFluor488 Goat anti-Rabbit 1:2,000 (Life Tech A11008) • AlexaFluor555 Goat anti-Mouse 1:2,000 (Life Tech A21422) incubate in 25 μl of secondary antibody (1:2,000) in blocking buffer for 1-2 hrs at room temp (alexafluor488-anti-Rabbit/alexafluor555-anti-Mouse) Image plates in high content microscope with 405 nm, 488 nm and 555 nm filters Nuclear counts and cellular intensities of each markers are measured using Hoechst as a nuclear marker with an automated image analysis protocol using Matlab software (Math Works) The results are reported on the following Table I for Examples A-EE and the E1-E4 compounds as 50 percent Inhibitory concentration at candidate doses of less than 1 μM, less than 3 μM and less than 10 μM for both of the K48 antibody and the p53 (CTG) antibody assays

A549 cells = experiment: Cultured cancer cell viability assay (cell titer glo, A549 CTG); assay type: cell-based; details: Homo sapiens
Excerpt: Anti-tumor effects are monitored in cultured cancer cells after several days of compound treatment. The cell titer glo assay (Promega) measures the amount of ATP present as a proxy for cellular viability. Cellular counting is done using high-content microscopy followed by image analysis. A hanging drop 3D-culture system (3D Biomatrix) is used followed by cell titer glo to measure growth in a tumor-like environment.
The cellular assay provides information about the anti-neoplastic activity of the compounds of the invention. The compounds are tested against cultured cancer cells to determine whether or not the compounds of the invention are capable of intersecting with cancer cells to minimize or eliminate such cells. The assay involves establishing colonies of such cells and then treating them with the test compound under specified conditions and analysis regime to determine results.
as §1
One (1) white plate for viability at 500 cells/well.
Serial dilute compounds with a 10 point 2-fold serial dilution in DMSO to make 250× stock compound solution
Dilute compounds 1:125 in cell culture media to make a 2× solution Add 25 μl of dilution compounds to cell plates in well duplicates
Put cells back in incubator (6 hr incubation for black plates, 72 hr incubation for white plates).
Thaw an aliquot of frozen cell titer glo (Promega G7572) at room temperature.
Add 45 mL of NaCl/PBS solution to 5 ml of cell titer glo (10×).
Remove white plates from incubator, leave at room temp for 30 minutes.
Add 25 μl of diluted cell titer glo to each well.
Shake plate for >1 minute.
Incubate plate for >5 minutes to stabilize luminescence. • Luminescence is stable for up to 3 hours.
Read luminescence on plate reader
The results are reported on the following Table I for Examples A-EE and the E1-E4 compounds as 50 percent Inhibitory concentration at candidate doses of less than 1 μM, less than 3 μM and less than 10 μM for both of the K48 antibody and the p53 (CTG) antibody assays

[2] = 20 nM p97, 20 uM ATP, 37 degC 15 min
[3] = A549, Table II, preliminary assays, read-out: K48 poly-Ubiquitin Accumulation
[4] = A549 cells, 6 hr incubation, K48-Ub antibody, read-out: A549 K48 IC50
[5] = A549, Table II, preliminary assays, read-out: Cell Titre Glow Assay IC50
[6] = A549 cells, 72 hr incubation, cell titer glo, read-out: A549 CTG IC50

Chain of p97 (P55072 whole entry): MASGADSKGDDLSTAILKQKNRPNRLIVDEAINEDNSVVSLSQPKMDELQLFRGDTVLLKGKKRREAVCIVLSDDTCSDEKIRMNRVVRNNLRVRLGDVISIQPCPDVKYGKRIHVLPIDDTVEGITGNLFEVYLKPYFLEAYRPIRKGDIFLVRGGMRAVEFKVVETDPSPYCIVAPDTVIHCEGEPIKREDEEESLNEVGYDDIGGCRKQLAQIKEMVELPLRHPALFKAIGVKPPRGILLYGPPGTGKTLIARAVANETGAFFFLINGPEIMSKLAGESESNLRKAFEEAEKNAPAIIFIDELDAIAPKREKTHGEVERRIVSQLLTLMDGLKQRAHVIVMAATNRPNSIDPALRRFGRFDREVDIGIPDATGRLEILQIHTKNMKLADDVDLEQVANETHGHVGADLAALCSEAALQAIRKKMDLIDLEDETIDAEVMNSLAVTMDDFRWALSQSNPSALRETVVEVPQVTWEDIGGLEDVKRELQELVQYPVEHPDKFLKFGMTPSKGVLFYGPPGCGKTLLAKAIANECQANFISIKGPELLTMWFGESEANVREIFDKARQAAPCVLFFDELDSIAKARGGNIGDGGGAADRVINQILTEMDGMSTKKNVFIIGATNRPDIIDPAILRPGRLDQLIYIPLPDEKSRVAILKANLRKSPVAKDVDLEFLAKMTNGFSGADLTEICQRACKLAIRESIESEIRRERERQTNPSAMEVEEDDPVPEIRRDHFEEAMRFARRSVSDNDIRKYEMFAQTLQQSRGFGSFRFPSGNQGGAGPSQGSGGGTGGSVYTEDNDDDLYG

| IC50 (p97; [2]) | IC50 (p97; Table II, preliminary assays) | IC50 [1, 3] | IC50 [1, 4] | IC50 (A549 cells; [5]) | IC50 (A549 cells; [6]) | Compound |
| --- | --- | --- | --- | --- | --- | --- |
| < 0.1 µM | 0.042 µM | 3 µM | < 10 µM | 2.01 µM | < 3 µM | Cc1cc(NCc2ccccc2)nc(-n2c(C)cc3c(C(N)=O)cccc32)n1 [Example 1, 1-[4-(benzylamino)-6-methylpyrimidin-2-yl]-2-methyl-1H-indole-4-carboxamide] |
| < 0.03 µM | 0.022 µM | 1.6 µM | < 3 µM | 0.97 µM | < 1 µM | Cc1cnc(-n2c(C)cc3c(C(N)=O)cccc32)nc1NCc1ccccc1 [Example 2, 1-[4-(benzylamino)-5-methylpyrimidin-2-yl]-2-methyl-1H-indole-4-carboxamide] |
| < 0.03 µM | 0.007 µM | 0.89 µM | < 1 µM | 0.467 µM | < 1 µM | COc1cnc(-n2c(C)cc3c(C(N)=O)cccc32)nc1NCc1ccccc1 [Example 3, 1-[4-(benzylamino)-5-methoxypyrimidin-2-yl]-2-methyl-1H-indole-4-carboxamide] |
| < 0.03 µM |  |  | < 3 µM |  | < 3 µM | Cc1cc2c(C(N)=O)cccc2n1-c1ncc(C(F)(F)F)c(NCc2ccccc2)n1 [Example 4, 1-[4-(benzylamino)-5-(trifluoromethyl)pyrimidin-2-yl]-2-methyl-1H-indole-4-carboxamide] |
| < 0.03 µM | 0.012 µM | 1.4 µM | < 3 µM | 1.79 µM | < 3 µM | Cc1cc2c(C(N)=O)cccc2n1-c1ncc(Cl)c(NCc2ccccc2)n1 [Example 5, 1-[4-(benzylamino)-5-chloropyrimidin-2-yl]-2-methyl-1H-indole-4-carboxamide] |
| < 0.03 µM |  |  | < 1 µM |  | < 1 µM | CCc1cnc(-n2c(C)cc3c(C(N)=O)cccc32)nc1NCc1ccccc1 [Example 6, 1-[4-(benzylamino)-5-ethylpyrimidin-2-yl]-2-methyl-1H-indole-4-carboxamide] |
| < 0.03 µM |  |  | < 3 µM |  | < 3 µM | COc1c(C)nc(-n2c(C)cc3c(C(N)=O)cccc32)nc1NCc1ccccc1 [Example 7, 1-[4-(benzylamino)-5-methoxy-6-methylpyrimidin-2-yl]-2-methyl-1H-indole-4-carboxamide] |
| < 0.03 µM |  |  | < 1 µM |  | < 3 µM | Cc1nc(-n2c(C)cc3c(C(N)=O)cccc32)nc(NCc2ccccc2)c1C(C)C [Example 8, 1-[4-(benzylamino)-6-methyl-5-(propan-2-yl)pyrimidin-2-yl]-2-methyl-1H-indole-4-carboxamide] |
| < 0.03 µM |  |  | < 3 µM |  | < 3 µM | Cc1c(NCc2ccccc2)nc(-n2c(C)cc3c(C(N)=O)cccc32)nc1C(F)(F)F [Example 9, 1-[4-(benzylamino)-5-methyl-6-(trifluoromethyl)pyrimidin-2-yl]-2-methyl-1H-indole-4-carboxamide] |
| < 0.1 µM |  |  | < 10 µM |  | < 10 µM | Cc1cc2c(C(N)=O)cccc2n1-c1ncc(C(N)=O)c(NCc2ccccc2)n1 [Example 10, 1-[4-(benzylamino)-5-carbamoylpyrimidin-2-yl]-2-methyl-1H-indole-4-carboxamide] |
| < 1 µM |  |  |  |  |  | Cc1cc2c(C(N)=O)cccc2n1-c1ncc(N)c(NCc2ccccc2)n1 [Example 17, 1-[5-amino-4-(benzylamino)pyrimidin-2-yl]-2-methyl-1H-indole-4-carboxamide] |
| < 1 µM |  |  |  |  |  | Cc1cc2c(C(N)=O)cccc2n1-c1ncc(CN(C)C)c(NCc2ccccc2)n1 [Example 21, 1-[4-(benzylamino)-5-[(dimethylamino)methyl]pyrimidin-2-yl]-2-methyl-1H-indole-4-carboxamide] |
| < 0.3 µM |  |  |  |  |  | Cc1cc2c(C(N)=O)cccc2n1-c1ncc(CN)c(NCc2ccccc2)n1 [Example 22, 1-[5-(aminomethyl)-4-(benzylamino)pyrimidin-2-yl]-2-methyl-1H-indole-4-carboxamide] |
| < 1 µM |  |  |  |  |  | CNCc1cnc(-n2c(C)cc3c(C(N)=O)cccc32)nc1NCc1ccccc1 [Example 23, 1-[4-(benzylamino)-5-[(methylaminoc)methyl]pyrimidin-2-yl]-2-methyl-1H-indole-4-carboxamide] |
| < 1 µM |  |  |  |  |  | Cc1cc2c(C(N)=O)cccc2n1-c1ncc(OCCN)c(NCc2ccccc2)n1 [Example 25, 1-[5-(2-aminoethoxy)-4-(benzylamino)pyrimidin-2-yl]-2-methyl-1H-indole-4-carboxamide] |
| < 1 µM |  |  |  |  |  | Cc1cnc(-n2c(CN)cc3c(C(N)=O)cccc32)nc1NCc1ccccc1 [Example 31, 2-(aminomethyl)-1-[4-(benzylamino)-5-methylpyrimidin-2-yl]-1H-indole-4-carboxamide Hydrochloride] |
| < 0.3 µM |  |  |  |  |  | CCc1cnc(-n2c(CN)cc3c(C(N)=O)cccc32)nc1NCc1ccccc1 [Example 32, 2-(aminomethyl)-1-[4-(benzylamino)-5-ethylpyrimidin-2-yl]-1H-indole-4-carboxamide] |
| < 1 µM |  |  |  |  |  | Cc1cc2c(CN)cccc2n1-c1ncc(C(C)C)c(NCc2ccccc2)n1 [Example 39, 2-[4-(aminomethyl)-2-methyl-1H-indol-1-yl]-N-benzyl-5-(propan-2-yl)pyrimidin-4-amine] |
